Several values for one entry are separate records, joined by “and”; a condition that tells them apart may be missing. Equal entries are not always repeated.
Columns and labels:
[1] = Oral P2A and intravenous meropenem in jejunal-fistulated dogs; type: in vivo, laboratory beagles; conditions: peak level in dog jejunum; meropenem 30 mg/kg IV alone; individual dogs
Procedure: The ability of P2A to degrade meropenem in the dog intestinal tract was evaluated using laboratory beagles that had permanent jejunal fistulas. The fistulas allowed the repeated collection of jejunal chyme specimens from these animals. Dogs were treated with peroral P2A (1 mg/kg) in a liquid formulation (PBS buffer), and/or intravenous meropenem (30 mg/kg). Serum samples were collected and serum meropenem levels quantified. Jejunal chyme samples were collected and meropenem and P2A levels were quantified. Meropenem levels in serum and chyme were measured using a plate diffusion method using meropenem susceptible Micrococcus luteus TS504 as the test strain. P2A activity levels in chyme were determined spectrophotometrically using meropenem as a substrate. Meropenem hydrolysis was monitored at a wavelength of 297 nm.

gut microbiome = system: gut microbiome; parameters: species or system Yorkshire piglets; conditions: in vivo
Procedure: The animals were treated with ertapenem (30 mg/kg) via intravenous infusion one a day for a total of 7 days.
Two pre-treatment fecal samples were obtained, the first 4 days after the animals arrived at the animal treatment facility (Day −7), and the second 7 days after arrival (Day −4). An additional 3 fecal samples were collected at Day 4, Day 8, and Day 9. The fecal samples were collected using the OMNIgene GUT sample collection kits (OMR-200, DNA Genotek, Ontario, Canada) and stored at room temperature away from light until all samples were collected. DNA isolated from the fecal samples was subjected to deep sequencing of the intestinal microbiome and analyses.
DNA was isolated from the fecal samples and subjected to whole genome shotgun sequencing using an Illumine HiSeq system with a target of 20 million 100 bp single reads per sample. […]
The percent similarity based on the relative bacterial strain abundance was calculated. […] Animals began ertapenem treatment on Day 1 and the percent similarity decreased every day the animals were evaluated. […]
A statistical analysis was performed to determine the probability that the microbiomes before and after antibiotic treatment remained the same or were different. The microbiome sequence data were analyzed using a parameterization of the Dirichlet-Multinomial distribution (La Rosa et al., 2012) to perform a Likelihood Ratio Test. […]

Meropenem [1] | Structure (SMILES) | microbiome diversity (percent similarity of strain relative abundance) (gut microbiome)
3.0 ug/ml (2×) and 3.2 ug/ml | C[C@@H](O)[C@H]1C(=O)N2C(C(=O)O)=C(S[C@@H]3CN[C@H](C(=O)N(C)C)C3)[C@H](C)[C@H]12 [Meropenem] | –
– | C[C@@H](O)[C@H]1C(=O)N2C(C(=O)O)=C(S[C@@H]3CN[C@H](C(=O)Nc4cccc(C(=O)O)c4)C3)[C@H](C)[C@H]12 [ertapenem] | causes a loss of diversity in the microbiome
